Assay results published in PubChem BioAssay (NCI).
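Growth conditions: 96-well plates. Treatment: test compound, 48 hours, 5 concentrations. Analysis: linear interpolation between bracketing concentrations; unreached endpoints set to highest concentration. TGI: concentration producing complete growth inhibition.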

What was measured:
Experiment in all cases: NCI-60 cell line screen, 48 h
[1] = system: 786-0 renal
[2] = system: A498 renal
[3] = system: A549 NSCLC
[4] = system: ACHN renal
[5] = system: CCRF-CEM leukemia
[6] = system: COLO 205 colon
[7] = system: DLD-1 colon
[8] = system: DMS 114 small cell lung
[9] = system: DMS 273 small cell lung
[10] = system: EKVX NSCLC
[11] = system: HCC-2998 colon
[12] = system: HCT-116 colon
[13] = system: HL-60(TB) leukemia
[14] = system: HOP-92 NSCLC
[15] = system: HT29 colon
[16] = system: IGROV1 ovarian
[17] = system: K-562 leukemia
[18] = system: KM12 colon
[19] = system: KM20L2 colon
[20] = system: LOX IMVI melanoma
[21] = system: LXFL 529 NSCLC
[22] = system: M14 melanoma
[23] = system: M19-MEL melanoma
[24] = system: MOLT-4 leukemia
[25] = system: NCI-H23 lung
[26] = system: NCI-H460 lung
[27] = system: NCI-H522 lung
[28] = system: OVCAR-3 ovarian
[29] = system: OVCAR-4 ovarian
[30] = system: OVCAR-5 ovarian
[31] = system: OVCAR-8 ovarian
[32] = system: RPMI-8226 leukemia
[33] = system: RXF 393 renal
[34] = system: SF-268 CNS
[35] = system: SF-295 CNS
[36] = system: SF-539 CNS
[37] = system: SK-MEL-28 melanoma
[38] = system: SK-MEL-5 melanoma
[39] = system: SK-OV-3 ovarian
[40] = system: SN12C renal
[41] = system: SNB-19 CNS
[42] = system: SNB-75 CNS
[43] = system: SNB-78 CNS
[44] = system: SR leukemia
[45] = system: SW-620 colon
[46] = system: TK-10 renal
[47] = system: U251 CNS
[48] = system: UACC-257 melanoma
[49] = system: UACC-62 melanoma
[50] = system: UO-31 renal
[51] = system: CAKI-1 renal
[52] = system: HCT-15 colon
[53] = system: HOP-62 NSCLC
[54] = system: MALME-3M melanoma
[55] = system: SK-MEL-2 melanoma
[56] = system: NCI-H226 lung

O=c1[nH]c(=O)n(C2OC(CO)C(N(O)Cc3ccc(F)cc3)C2O)cc1Br (stereo not given)
TGI [1]: > 100 µM | TGI [2]: > 100 µM | TGI [3]: > 100 µM | TGI [4]: > 100 µM | TGI [5]: > 100 µM | TGI [6]: > 100 µM | TGI [7]: > 100 µM | TGI [8]: > 100 µM | TGI [9]: > 100 µM | TGI [10]: > 100 µM | TGI [11]: > 100 µM | TGI [12]: > 100 µM | TGI [13]: > 100 µM | TGI [14]: > 100 µM | TGI [15]: > 100 µM | TGI [16]: > 100 µM | TGI [17]: > 100 µM | TGI [18]: > 100 µM | TGI [19]: > 100 µM | TGI [20]: > 100 µM | TGI [21]: > 100 µM | TGI [22]: > 100 µM | TGI [23]: > 100 µM | TGI [24]: > 100 µM | TGI [25]: > 100 µM | TGI [26]: > 100 µM | TGI [27]: > 100 µM | TGI [28]: > 100 µM | TGI [29]: > 100 µM | TGI [30]: > 100 µM | TGI [31]: > 100 µM | TGI [32]: > 100 µM | TGI [33]: > 100 µM | TGI [34]: > 100 µM | TGI [35]: > 100 µM | TGI [36]: > 100 µM | TGI [37]: > 100 µM | TGI [38]: > 100 µM | TGI [39]: > 100 µM | TGI [40]: > 100 µM | TGI [41]: > 100 µM | TGI [42]: > 100 µM | TGI [43]: > 100 µM | TGI [44]: > 100 µM | TGI [45]: > 100 µM | TGI [46]: > 100 µM | TGI [47]: > 100 µM | TGI [48]: > 100 µM | TGI [49]: > 100 µM | TGI [50]: > 100 µM

O=C1NC(=O)C(C(=O)C(=O)Nc2cccc(C(F)(F)F)c2)C(=O)N1
TGI [1]: > 100 µM | TGI [2]: > 100 µM | TGI [3]: > 100 µM | TGI [4]: > 100 µM | TGI [51]: > 100 µM | TGI [5]: > 100 µM | TGI [6]: > 100 µM | TGI [7]: > 100 µM | TGI [8]: > 100 µM | TGI [10]: > 100 µM | TGI [11]: > 100 µM | TGI [12]: > 100 µM | TGI [52]: > 100 µM | TGI [13]: > 100 µM | TGI [53]: > 100 µM | TGI [16]: > 100 µM | TGI [17]: > 100 µM | TGI [18]: > 100 µM | TGI [19]: > 100 µM | TGI [20]: > 100 µM | TGI [21]: > 100 µM | TGI [22]: > 100 µM | TGI [23]: > 100 µM | TGI [54]: > 100 µM | TGI [24]: > 100 µM | TGI [25]: > 100 µM | TGI [26]: > 100 µM | TGI [27]: > 100 µM | TGI [28]: > 100 µM | TGI [29]: > 100 µM | TGI [30]: > 100 µM | TGI [31]: > 100 µM | TGI [32]: > 100 µM | TGI [33]: > 100 µM | TGI [34]: > 100 µM | TGI [36]: > 100 µM | TGI [55]: > 100 µM | TGI [37]: > 100 µM | TGI [38]: > 100 µM | TGI [39]: > 100 µM | TGI [41]: > 100 µM | TGI [42]: > 100 µM | TGI [43]: > 100 µM | TGI [45]: > 100 µM | TGI [46]: > 100 µM | TGI [47]: > 100 µM | TGI [48]: > 100 µM | TGI [49]: > 100 µM | TGI [50]: > 100 µM

C=C1C(=O)OC2C1CC[C@H](C)C1(O)C(O)CC(=O)[C@@]21C (stereo not given in full)
TGI [1]: 66.7 µM | TGI [2]: 36 µM | TGI [3]: > 100 µM | TGI [4]: 43.4 µM | TGI [51]: 72.7 µM | TGI [5]: > 10 µM | TGI [6]: 30.8 µM | TGI [7]: 80.7 µM | TGI [8]: 33.9 µM | TGI [9]: 52.3 µM | TGI [10]: 45.1 µM | TGI [11]: 46.6 µM | TGI [12]: 33.9 µM | TGI [13]: 55.2 µM | TGI [14]: 47.7 µM | TGI [15]: 48.9 µM | TGI [16]: 73.4 µM | TGI [17]: 55.6 µM | TGI [18]: 34.1 µM | TGI [21]: > 10 µM | TGI [23]: 26.8 µM | TGI [54]: 39.2 µM | TGI [24]: 42.7 µM | TGI [56]: 53.3 µM | TGI [25]: 40.3 µM | TGI [26]: > 100 µM | TGI [28]: 47.8 µM | TGI [30]: 65.4 µM | TGI [31]: 42.8 µM | TGI [32]: 94.8 µM | TGI [33]: > 10 µM | TGI [34]: 54.5 µM | TGI [35]: 61.3 µM | TGI [36]: 40.3 µM | TGI [55]: 72.1 µM | TGI [37]: 27 µM | TGI [38]: 31.4 µM | TGI [39]: 56 µM | TGI [40]: 45.1 µM | TGI [41]: > 100 µM | TGI [42]: 76.2 µM | TGI [43]: 84.2 µM | TGI [44]: 47.9 µM | TGI [45]: 44 µM | TGI [46]: > 10 µM | TGI [47]: > 100 µM | TGI [48]: 32.6 µM | TGI [49]: 25.3 µM | TGI [50]: 71.2 µM

Cn1c(=O)c2ccccc2c2nc3ccccc3nc21
TGI [1]: > 100 µM | TGI [3]: > 100 µM | TGI [4]: > 100 µM | TGI [6]: > 100 µM | TGI [8]: > 100 µM | TGI [9]: > 100 µM | TGI [10]: > 100 µM | TGI [11]: > 100 µM | TGI [12]: > 100 µM | TGI [52]: > 100 µM | TGI [15]: > 100 µM | TGI [16]: > 100 µM | TGI [17]: > 100 µM | TGI [18]: > 100 µM | TGI [19]: > 100 µM | TGI [21]: > 100 µM | TGI [23]: > 100 µM | TGI [54]: > 100 µM | TGI [24]: > 100 µM | TGI [56]: > 100 µM | TGI [25]: > 100 µM | TGI [30]: > 100 µM | TGI [31]: > 100 µM | TGI [32]: > 100 µM | TGI [33]: > 100 µM | TGI [34]: > 100 µM | TGI [35]: > 100 µM | TGI [36]: > 100 µM | TGI [55]: > 100 µM | TGI [37]: > 100 µM | TGI [38]: > 100 µM | TGI [39]: > 100 µM | TGI [40]: > 100 µM | TGI [41]: > 100 µM | TGI [42]: 58.9 µM | TGI [43]: > 100 µM | TGI [44]: > 100 µM | TGI [45]: > 100 µM | TGI [46]: > 100 µM | TGI [47]: > 100 µM | TGI [48]: > 100 µM | TGI [49]: > 100 µM | TGI [50]: > 100 µM

COc1c(Br)cc(Br)c(OC)c1-c1ccc[nH]1
TGI [1]: > 100 µM | TGI [2]: > 100 µM | TGI [3]: > 100 µM | TGI [4]: > 100 µM | TGI [51]: > 100 µM | TGI [5]: > 100 µM | TGI [6]: > 100 µM | TGI [7]: > 100 µM | TGI [8]: > 100 µM | TGI [9]: > 100 µM | TGI [10]: > 100 µM | TGI [12]: > 100 µM | TGI [52]: > 100 µM | TGI [13]: > 100 µM | TGI [53]: > 100 µM | TGI [14]: > 100 µM | TGI [15]: > 100 µM | TGI [16]: > 100 µM | TGI [17]: > 100 µM | TGI [18]: > 100 µM | TGI [20]: > 100 µM | TGI [21]: > 100 µM | TGI [22]: > 100 µM | TGI [23]: > 100 µM | TGI [24]: > 100 µM | TGI [56]: > 100 µM | TGI [25]: > 100 µM | TGI [26]: > 100 µM | TGI [27]: > 100 µM | TGI [28]: > 100 µM | TGI [29]: > 100 µM | TGI [30]: > 100 µM | TGI [31]: > 100 µM | TGI [32]: > 100 µM | TGI [34]: > 100 µM | TGI [35]: > 100 µM | TGI [36]: > 100 µM | TGI [55]: > 100 µM | TGI [37]: > 100 µM | TGI [38]: > 100 µM | TGI [39]: > 100 µM | TGI [42]: > 100 µM | TGI [43]: > 100 µM | TGI [45]: > 100 µM | TGI [46]: > 100 µM | TGI [47]: > 100 µM | TGI [48]: > 100 µM | TGI [49]: > 100 µM | TGI [50]: > 100 µM
